10 compounds from patent US10206394B2, “Herbicidal compounds” (Syngenta Participations AG, priority 2014, dated 2019) can be followed below.

Like-named read-outs stand apart in the source and are kept apart here.

What all share (test): Glasshouse assay for herbicidal activity (pre- and post-emergence), percentage phytotoxicity
What all share (format): in vivo

Assay [1] concerns Echinochloa crus-galli (ECHCG). The note with it: Echinochloa crus-galli. Put shortly: (§1)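 Sow seed in standard soil in pots; apply test herbicide after 1 day (PRE) or about 12 days (POST). Grow on in the glasshouse, watering twice daily, cool-season species at 20/16 °C and warm-season at 24/18 °C. Score visible damage (0–100%) at 20 or 15 DAA respectively.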
The next assay concerns Lolium perenne (LOLPE). The note with it: Lolium perenne. A digest of the protocol:
as §1

Assay [2] deals with Alopecurus myosuroides (ALOMY). Particulars: Alopecurus myosuroides. A digest of the protocol:
as §1

For another assay, the system named is Avena fatua (AVEFA). Particulars: Avena fatua. Put shortly: as §1
Where [3] appears, read: post-emergence, 360 h, 250 g/ha, post-emergence, 15 DAA, visual assessment (100%=total damage, 0%=no damage), read-out: Post-emergence herbicidal activity (percentage phytotoxicity) ECHCG POST.
The mark [4] stands for this setting: pre-emergence, 480 h, 250 g/ha, pre-emergence, 20 DAA, visual assessment (100%=total damage, 0%=no damage), read-out: Pre-emergence herbicidal activity (percentage phytotoxicity) ECHCG PRE.
Setting [5] is: post-emergence, 360 h, 250 g/ha, post-emergence, 15 DAA, visual assessment (100%=total damage, 0%=no damage), read-out: Post-emergence herbicidal activity (percentage phytotoxicity) LOLPE POST.
The mark [6] stands for this setting: pre-emergence, 480 h, 250 g/ha, pre-emergence, 20 DAA, visual assessment (100%=total damage, 0%=no damage), read-out: Pre-emergence herbicidal activity (percentage phytotoxicity) LOLPE PRE.
[7] abbreviates: post-emergence, 360 h, 250 g/ha, post-emergence, 15 DAA, visual assessment (100%=total damage, 0%=no damage), read-out: Post-emergence herbicidal activity (percentage phytotoxicity) ALOMY POST.
[8] abbreviates: pre-emergence, 480 h, 250 g/ha, pre-emergence, 20 DAA, visual assessment (100%=total damage, 0%=no damage), read-out: Pre-emergence herbicidal activity (percentage phytotoxicity) ALOMY PRE.
Setting [9] is: post-emergence, 360 h, 250 g/ha, post-emergence, 15 DAA, visual assessment (100%=total damage, 0%=no damage), read-out: Post-emergence herbicidal activity (percentage phytotoxicity) AVEFA POST.
The mark [10] stands for this setting: pre-emergence, 480 h, 250 g/ha, pre-emergence, 20 DAA, visual assessment (100%=total damage, 0%=no damage), read-out: Pre-emergence herbicidal activity (percentage phytotoxicity) AVEFA PRE.
Where [11] appears, read: post-emergence, 360 h, POST-emergence, rate 250 g/ha, visual score 15 DAA (100%=total damage, 0%=no damage), read-out: Post-emergence herbicidal activity (percentage phytotoxicity) ECHCG POST.
The mark [12] stands for this setting: pre-emergence, 480 h, PRE-emergence, rate 250 g/ha, visual score 20 DAA (100%=total damage, 0%=no damage), read-out: Pre-emergence herbicidal activity (percentage phytotoxicity) ECHCG PRE.
Setting [13] is: post-emergence, 360 h, POST-emergence, rate 250 g/ha, visual score 15 DAA (100%=total damage, 0%=no damage), read-out: Post-emergence herbicidal activity (percentage phytotoxicity) LOLPE POST.
Where [14] appears, read: pre-emergence, 480 h, PRE-emergence, rate 250 g/ha, visual score 20 DAA (100%=total damage, 0%=no damage), read-out: Pre-emergence herbicidal activity (percentage phytotoxicity) LOLPE PRE.
Setting [15] is: post-emergence, 360 h, POST-emergence, rate 250 g/ha, visual score 15 DAA (100%=total damage, 0%=no damage), read-out: Post-emergence herbicidal activity (percentage phytotoxicity) ALOMY POST.
Where [16] appears, read: pre-emergence, 480 h, PRE-emergence, rate 250 g/ha, visual score 20 DAA (100%=total damage, 0%=no damage), read-out: Pre-emergence herbicidal activity (percentage phytotoxicity) ALOMY PRE.
Setting [17] is: post-emergence, 360 h, POST-emergence, rate 250 g/ha, visual score 15 DAA (100%=total damage, 0%=no damage), read-out: Post-emergence herbicidal activity (percentage phytotoxicity) AVEFA POST.
[18] abbreviates: pre-emergence, 480 h, PRE-emergence, rate 250 g/ha, visual score 20 DAA (100%=total damage, 0%=no damage), read-out: Pre-emergence herbicidal activity (percentage phytotoxicity) AVEFA PRE.

Consider `Cc1cc(C)c(C2C(=O)CC(CC(=O)NC3CC(F)C3)C2=O)c(C)c1` (centres unmarked) [Compound A181], for which the pest or weed control at 250 g/ha came out at 80% in assay [1] (post-emergence, 360 h, post-emergence, 250 g/ha, 15 DAA, visual score (100%=total damage; 0%=no damage), read-out: ECHCG POST herbicidal activity (percentage phytotoxicity)); 90% in assay [1] (pre-emergence, 480 h, pre-emergence, 250 g/ha, 20 DAA, visual score (100%=total damage; 0%=no damage), read-out: ECHCG PRE herbicidal activity (percentage phytotoxicity)); 100% in the assay on Lolium perenne (LOLPE) (post-emergence, 360 h, post-emergence, 250 g/ha, 15 DAA, visual score (100%=total damage; 0%=no damage), read-out: LOLPE POST herbicidal activity (percentage phytotoxicity)); 100% in the assay with Lolium perenne (LOLPE) (pre-emergence, 480 h, pre-emergence, 250 g/ha, 20 DAA, visual score (100%=total damage; 0%=no damage), read-out: LOLPE PRE herbicidal activity (percentage phytotoxicity)); 90% in assay [2] (post-emergence, 360 h, post-emergence, 250 g/ha, 15 DAA, visual score (100%=total damage; 0%=no damage), read-out: ALOMY POST herbicidal activity (percentage phytotoxicity)); 90% in assay [2] (pre-emergence, 480 h, pre-emergence, 250 g/ha, 20 DAA, visual score (100%=total damage; 0%=no damage), read-out: ALOMY PRE herbicidal activity (percentage phytotoxicity)). For the same compound, the pest or weed control at 250 g/ha worked out at 90% in the assay with Avena fatua (AVEFA) (post-emergence, 360 h, post-emergence, 250 g/ha, 15 DAA, visual score (100%=total damage; 0%=no damage), read-out: AVEFA POST herbicidal activity (percentage phytotoxicity)) and 90% in the assay on Avena fatua (AVEFA) (pre-emergence, 480 h, pre-emergence, 250 g/ha, 20 DAA, visual score (100%=total damage; 0%=no damage), read-out: AVEFA PRE herbicidal activity (percentage phytotoxicity)).
As for `C/C=C/CNC(=O)CC1CC(=O)C(c2c(C)cc(C)cc2C)C1=O` (centres unmarked) [Compound B47], the pest or weed control at 250 g/ha in assay [1] (setting [3]) stood at 90%; in assay [1] (setting [4]), 90%; in the assay with Lolium perenne (LOLPE) (setting [5]), 90%; in the assay with Lolium perenne (LOLPE) (setting [6]) it was 100%; in assay [2] (setting [7]) it was 90%; in assay [2] (setting [8]) it was 90%. The figures for the pest or weed control at 250 g/ha with Avena fatua (AVEFA) (setting [9]) and in the assay with Avena fatua (AVEFA) (setting [10]) were 80% and 60%, respectively.
Regarding `Cc1cc(C)c(C2C(=O)CC(CC(=O)NC(C)(C)C#N)C2=O)c(C)c1` (centres unmarked) [Compound B43], the pest or weed control at 250 g/ha is 60% in assay [1] (setting [3]); 40% in assay [1] (setting [4]); 80% in the assay with Lolium perenne (LOLPE) (setting [5]); 60% in the assay on Lolium perenne (LOLPE) (setting [6]); 80% in assay [2] (setting [7]); 70% in assay [2] (setting [8]). Besides, the pest or weed control at 250 g/ha was determined as 80% in the assay with Avena fatua (AVEFA) (setting [9]) and 30% in the assay with Avena fatua (AVEFA) (setting [10]).
Turning to `C/C=C/c1cc(C)c(C2C(=O)CC(CC(=O)N3CCOCC3)C2=O)c(C)c1` (centres unmarked) [Compound B172], the pest or weed control at 250 g/ha in assay [1] (setting [11]) came to 100%; in assay [1] (setting [12]), 100%; in the assay on Lolium perenne (LOLPE) (setting [13]), 90%; in the assay with Lolium perenne (LOLPE) (setting [14]) it was 100%; in assay [2] (setting [15]) it was 90%; in assay [2] (setting [16]), 80%. Further, the values for the pest or weed control at 250 g/ha in the assay on Avena fatua (AVEFA) (setting [17]) and in the assay with Avena fatua (AVEFA) (setting [18]) were 90% and 80%, respectively.
Take `Cc1cc(Br)cc(C)c1C1C(=O)CC(CC(=O)NCC2CC2)C1=O` (centres unmarked) [Compound B122]: the pest or weed control at 250 g/ha in assay [1] (setting [3]) turned out to be 100%; in assay [1] (setting [4]) it was 70%; with Lolium perenne (LOLPE) (setting [5]) it was 100%; with Lolium perenne (LOLPE) (setting [6]), 90%; in assay [2] (setting [7]) it was 100%; in assay [2] (setting [8]) it was 80%. In addition, the pest or weed control at 250 g/ha was 100% with Avena fatua (AVEFA) (setting [9]) and 80% in the assay with Avena fatua (AVEFA) (setting [10]).
As to `Cc1cc(-n2cc(Cl)cn2)cc(C)c1C1C(=O)CC(CC(=O)NCc2ccccn2)C1=O` (centres unmarked) [Compound A71], the pest or weed control at 250 g/ha in assay [1] (post-emergence, 360 h, Rate 250 g/ha, post-emergence, assessed visually 15 DAA, 100%=total damage, 0%=no damage, read-out: Post-emergence herbicidal activity (percentage phytotoxicity) ECHCG POST) came to 100%; in assay [1] (pre-emergence, 480 h, Rate 250 g/ha, pre-emergence, assessed visually 20 DAA, 100%=total damage, 0%=no damage, read-out: Pre-emergence herbicidal activity (percentage phytotoxicity) ECHCG PRE), 90%; in the assay with Lolium perenne (LOLPE) (post-emergence, 360 h, Rate 250 g/ha, post-emergence, assessed visually 15 DAA, 100%=total damage, 0%=no damage, read-out: Post-emergence herbicidal activity (percentage phytotoxicity) LOLPE POST), 70%; with Lolium perenne (LOLPE) (pre-emergence, 480 h, Rate 250 g/ha, pre-emergence, assessed visually 20 DAA, 100%=total damage, 0%=no damage, read-out: Pre-emergence herbicidal activity (percentage phytotoxicity) LOLPE PRE), 60%; in assay [2] (post-emergence, 360 h, Rate 250 g/ha, post-emergence, assessed visually 15 DAA, 100%=total damage, 0%=no damage, read-out: Post-emergence herbicidal activity (percentage phytotoxicity) ALOMY POST), 100%; in assay [2] (pre-emergence, 480 h, Rate 250 g/ha, pre-emergence, assessed visually 20 DAA, 100%=total damage, 0%=no damage, read-out: Pre-emergence herbicidal activity (percentage phytotoxicity) ALOMY PRE) it was 80%. The pest or weed control at 250 g/ha worked out at 90% with Avena fatua (AVEFA) (post-emergence, 360 h, Rate 250 g/ha, post-emergence, assessed visually 15 DAA, 100%=total damage, 0%=no damage, read-out: Post-emergence herbicidal activity (percentage phytotoxicity) AVEFA POST) and 80% in the assay with Avena fatua (AVEFA) (pre-emergence, 480 h, Rate 250 g/ha, pre-emergence, assessed visually 20 DAA, 100%=total damage, 0%=no damage, read-out: Pre-emergence herbicidal activity (percentage phytotoxicity) AVEFA PRE).
With `Cc1cc(C)c(C2C(=O)CC(CC(=O)NCC3CC3(Cl)Cl)C2=O)c(C)c1` (centres unmarked) [Compound B40], the pest or weed control at 250 g/ha was 90% in assay [1] (setting [3]); 90% in assay [1] (setting [4]); 80% in the assay with Lolium perenne (LOLPE) (setting [5]); 90% with Lolium perenne (LOLPE) (setting [6]); 80% in assay [2] (setting [7]); 90% in assay [2] (setting [8]). For the same compound, the pest or weed control at 250 g/ha was 90% in the assay on Avena fatua (AVEFA) (setting [9]) and 70% in the assay on Avena fatua (AVEFA) (setting [10]).
Turning to `CCNC(=O)CC1CC(=O)C(c2c(C)cc(-c3ncc(F)cn3)cc2C)C1=O` (centres unmarked) [Compound B277], the pest or weed control at 250 g/ha (in assay [1] (setting [11]); in assay [1] (setting [12]); in the assay on Lolium perenne (LOLPE) (setting [13]); in the assay with Lolium perenne (LOLPE) (setting [14]); in assay [2] (setting [15]); in assay [2] (setting [16])) was 100% throughout. Moreover, the pest or weed control at 250 g/ha with Avena fatua (AVEFA) (setting [17]) and in the assay on Avena fatua (AVEFA) (setting [18]) was 100% each time.
For `Cc1cc(-c2ncc(F)cc2F)cc(C)c1C1C(=O)CC(CC(=O)NC/C=C/Cl)C1=O` (centres unmarked) [Compound B290], the pest or weed control at 250 g/ha (in assay [1] (setting [11]); in assay [1] (setting [12]); with Lolium perenne (LOLPE) (setting [13]); in the assay on Lolium perenne (LOLPE) (setting [14]); in assay [2] (setting [15]); in assay [2] (setting [16])) was 100% in each case. Also, the pest or weed control at 250 g/ha with Avena fatua (AVEFA) (setting [17]) and in the assay with Avena fatua (AVEFA) (setting [18]) was 100% throughout.
Take `CC#Cc1cc(C)c(C2C(=O)CC(CC(N)=O)C2=O)c(C)c1` (centres unmarked) [Compound B168]: the pest or weed control at 250 g/ha (in assay [1] (setting [11]); in assay [1] (setting [12]); in the assay on Lolium perenne (LOLPE) (setting [13]); in the assay on Lolium perenne (LOLPE) (setting [14]); in assay [2] (setting [15]); in assay [2] (setting [16])) was 100% throughout. Moreover, the pest or weed control at 250 g/ha with Avena fatua (AVEFA) (setting [17]) and with Avena fatua (AVEFA) (setting [18]) was 100% throughout.
